The source of these data is article PMC6017745 (Molecules : A Journal of Synthetic Chemistry and Natural …, 2018).

Entries after “also recorded” stand apart in the source; their conditions may differ. Read-outs that look alike come from different tables or passages of the source.

One data set addresses H3 receptor (Cavia porcellus, UniProt Q9JI35). In words: H3 antagonistic activity against H3 agonist-induced inhibition of electrically evoked contraction of guinea-pig jejunum. Conditions: vs (R)-α-methylhistamine, Schild analysis; for pA2 (SEM) H3: guinea pig jejunum; for Kb: pA2 (SEM) H3, guinea pig jejunum.
In data set [1] the target is T1, rat histamine H3 receptor (rH3R) (Rattus norvegicus, UniProt Q9QYN8). Conditions: read-out: KD saturation binding at rH3R; HEK-293T membranes, two hours at 25 °C.
For data set [2], the target named is human histamine H3 receptor (hH3R) (Homo sapiens, UniProt Q9Y5N1). Conditions: read-out: KD saturation binding at hH3R.
The target of data set [3] is T1, rat histamine H3 receptor (rH3R). Nature of the data set: biochemical.
Another data set concerns Lewis rats. Nature of the data set: Food consumption during subchronic administration to rats (metabolic cages). In kind it is in vivo, rat. Conditions: s.c. 3 mg/kg/daily for five days.
For data set [4], the system named is dopamine, noradrenaline and serotonin concentration in rat brain. Nature of the data set: Post-mortem cerebral concentration of biogenic amines DA, NA, 5-HT (RIA). The data set is classed as in vivo. Conditions: rats.
Procedure: (§2) Post-mortem brain analyses included estimation of the amine neurotransmitters concentrations as well as the activities of the degradative enzymes HNMT and MAO-A and MAO-B. The rats were sacrificed 24 h after the last injection. The brains were collected, separated into hypothalamus and the cerebral cortex according to the Glowinski and Iversen method [42], immediately frozen in liquid nitrogen and kept at −80 °C until assayed. […] For MAO-A serotonin (5-[2-^14C]-hydroxytryptamine binoxalate) and for MAO-B β-[ethyl-1-^14C]-phenylethylamine hydrochloride were used as substrates and respectively, clorgyline (MAO-A) and deprenyl (MAO-B) (final conc. 10^−9 M) as the enzymes inhibitors.
The subject of the next data set is MAO-A. Nature of the data set: Post-mortem cerebral MAO-A activity (radioisotopic assay). In kind it is in vivo, rat. As to conditions: cerebral cortex, rats s.c. 3 mg/kg/daily for five days, means ± SEM. On the procedure: (§1) Post-mortem brain analyses included estimation of the amine neurotransmitters concentrations as well as the activities of the degradative enzymes HNMT and MAO-A and MAO-B. The rats were sacrificed 24 h after the last injection. The brains were collected, separated into hypothalamus and the cerebral cortex according to the Glowinski and Iversen method, immediately frozen in liquid nitrogen and kept at −80 °C until assayed. […] For MAO-A serotonin (5-[2-^14C]-hydroxytryptamine binoxalate) and for MAO-B β-[ethyl-1-^14C]-phenylethylamine hydrochloride were used as substrates and respectively, clorgyline (MAO-A) and deprenyl (MAO-B) (final conc. 10^−9 M) as the enzymes inhibitors. Protein was measured by Lowry method.

A further data set relates to HNMT. In words: Post-mortem cerebral HNMT activity (radioisotopic assay). In kind it is in vivo, rat. Conditions: for HNMT activity CTX: cerebral cortex; for HNMT activity CTX / HNMT activity HTH: rats s.c. 3 mg/kg/daily for five days, means ± SEM; for HNMT activity HTH: hypothalamus.
The target in data set [5] is T2, H1 receptor (Cavia porcellus, UniProt P31389). Set-up: The excised ileum was placed in phosphate buffer at room temperature; from tissue; host or cells: guinea pig ileum. Conditions: guinea pig ileum, NA = inactive, cited from earlier work.
Data set [6] has as its system histamine concentration in rat brain. Nature of the data set: Post-mortem cerebral histamine concentration (ELISA). The data set is classed as in vivo. Conditions: rats, s.c. 3 mg/kg/daily for five days.
Procedure: as §2
The next data set deals with MAO-B. In words: Post-mortem cerebral MAO-B activity (radioisotopic assay). In kind it is in vivo, rat. As to conditions: cerebral cortex, rats s.c. 3 mg/kg/daily for five days, means ± SEM. On the procedure: as §1
In data set [7] the target is T2, H1 receptor. Nature of the data set: H1 antagonistic effects in vitro using the guinea pig ileum.
Procedure: The final compounds showing the highest potency for the H3 receptors were also tested for H1 antagonistic effects in vitro, following standard methods, using the guinea pig ileum [34].
Selected final compounds were tested for H1 antagonistic effects in vitro, following standard methods, using the guinea pig ileum [34]. The donors were male guinea pigs (300–400 g) as mentioned above.

Sequence of H3 receptor (Q9JI35 whole entry): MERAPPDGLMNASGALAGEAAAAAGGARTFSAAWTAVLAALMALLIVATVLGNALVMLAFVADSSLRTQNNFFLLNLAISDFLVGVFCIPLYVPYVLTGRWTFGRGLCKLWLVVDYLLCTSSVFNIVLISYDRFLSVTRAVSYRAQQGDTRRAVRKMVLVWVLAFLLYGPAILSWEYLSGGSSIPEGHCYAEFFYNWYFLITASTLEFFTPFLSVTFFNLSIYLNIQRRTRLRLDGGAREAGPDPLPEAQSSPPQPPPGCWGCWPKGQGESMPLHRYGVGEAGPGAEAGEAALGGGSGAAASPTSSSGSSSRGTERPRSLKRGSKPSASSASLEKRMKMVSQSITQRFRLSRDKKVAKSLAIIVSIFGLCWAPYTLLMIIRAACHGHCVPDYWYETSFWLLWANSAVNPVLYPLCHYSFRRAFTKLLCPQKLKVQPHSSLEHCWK
T2 sequence (P31389 whole entry): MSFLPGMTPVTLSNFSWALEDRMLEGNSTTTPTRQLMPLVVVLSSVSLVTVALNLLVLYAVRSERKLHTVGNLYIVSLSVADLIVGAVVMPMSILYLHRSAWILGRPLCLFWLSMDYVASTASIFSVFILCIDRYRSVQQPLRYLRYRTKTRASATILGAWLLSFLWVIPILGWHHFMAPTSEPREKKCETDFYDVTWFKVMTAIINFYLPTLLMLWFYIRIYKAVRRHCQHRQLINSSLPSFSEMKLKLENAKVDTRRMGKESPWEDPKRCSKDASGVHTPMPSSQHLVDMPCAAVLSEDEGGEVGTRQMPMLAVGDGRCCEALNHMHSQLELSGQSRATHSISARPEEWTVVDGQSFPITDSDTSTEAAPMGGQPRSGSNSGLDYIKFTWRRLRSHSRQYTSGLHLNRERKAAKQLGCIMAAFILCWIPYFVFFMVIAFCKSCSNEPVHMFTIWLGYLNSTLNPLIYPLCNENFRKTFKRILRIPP
T1 sequence (Q9QYN8 whole entry): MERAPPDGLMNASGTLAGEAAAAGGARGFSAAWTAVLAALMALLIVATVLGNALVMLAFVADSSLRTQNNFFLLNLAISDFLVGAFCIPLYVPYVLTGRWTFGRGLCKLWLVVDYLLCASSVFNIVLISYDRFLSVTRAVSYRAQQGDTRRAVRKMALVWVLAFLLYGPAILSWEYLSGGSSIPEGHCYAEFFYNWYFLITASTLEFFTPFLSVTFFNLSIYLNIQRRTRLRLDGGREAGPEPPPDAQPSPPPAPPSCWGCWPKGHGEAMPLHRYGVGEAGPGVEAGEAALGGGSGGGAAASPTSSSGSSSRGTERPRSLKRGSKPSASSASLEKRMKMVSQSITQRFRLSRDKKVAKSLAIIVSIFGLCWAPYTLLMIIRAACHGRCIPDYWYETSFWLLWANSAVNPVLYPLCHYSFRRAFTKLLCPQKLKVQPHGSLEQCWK
Sequence of human histamine H3 receptor (hH3R) (Q9Y5N1 whole entry): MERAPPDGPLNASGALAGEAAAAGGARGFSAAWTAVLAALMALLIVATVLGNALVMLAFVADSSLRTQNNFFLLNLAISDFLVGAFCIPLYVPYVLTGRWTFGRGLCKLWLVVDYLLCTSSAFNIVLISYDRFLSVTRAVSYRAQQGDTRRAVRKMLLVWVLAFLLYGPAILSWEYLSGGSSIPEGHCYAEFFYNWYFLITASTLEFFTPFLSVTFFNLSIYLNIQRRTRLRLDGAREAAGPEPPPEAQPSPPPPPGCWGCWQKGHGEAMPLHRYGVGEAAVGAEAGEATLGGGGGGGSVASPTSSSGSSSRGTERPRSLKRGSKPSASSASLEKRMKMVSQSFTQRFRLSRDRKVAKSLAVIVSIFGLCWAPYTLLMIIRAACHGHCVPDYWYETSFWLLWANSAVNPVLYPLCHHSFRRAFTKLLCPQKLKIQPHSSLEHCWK
Procedure for HNMT: as §2
Procedure for Lewis rats: For the first stage, food intakes were measured daily during subchronic drugs administration. […] All animal experimental procedures were performed in accordance with EU directives and local ethical regulations. Male Lewis rats 9–10 weeks of age were used. Metabolic cages (Tecniplast, Buguggiate, Italy) were used to measure feed consumption. The cages have a standardized size that allows the animal to move inside freely. Throughout the adaptive period and the experimental one, access to feed and fluid was unlimited. The illumination cycle was stable at 12 h light on, 12 h light off. Rats were individually placed in the cages four days before the onset of treatment to adapt to a new environment and conditions of housing. The consumption and excretion were recorded every morning and the monitoring continued as long as the rats stayed in metabolic cages. The treatment ran for five days from the fifth day. […] Records of consumption were taken as g of feed per 100 g body mass.

On to `CCCN1CCN(c2ncc(CCCN(C)CCCc3ccccc3)s2)CC1` [Compound 3c, N-Methyl-N-(3-phenylpropyl)-3-[2-(4-n-propylpropylpiperazin-1-yl)-1,3-thiazol-5-yl]-propan-1-amine], for which, at H3 receptor, the “pA2 (SEM) H3” value came out at 7.46 and the Kb is 34.7 nM.

On to `CCCN1CCN(c2ncc(CCCCN(C)CCCc3ccccc3)s2)CC1` [Compound 3f, N-Methyl-N-(3-phenylpropyl)-4-[2-(4-n-propylpiperazin-1-yl)-1,3-thiazol-5-yl]butan-1-amine], for which, on H3 receptor, the “pA2 (SEM) H3” value is reported as 7.91 and the Kb is 12.3 nM.

Take `CNCCc1cnc[nH]1` [[^3H]-N^α-MH, [^3H]-N^α-methylhistamine]: the Kd in data set [1] is 2.72 ± 0.34 nM; in [2], 0.9 ± 0.08 nM.

`S=C(NC1CCCCC1)N1CCC(c2cnc[nH]2)CC1` [Thioperamide, thioperamide, reference compound]: in data set [3], the affinity corresponds to a Ki of 12.6 nM. This compound also had a Kb at H3 receptor of 3.39 nM.

For `CCCN1CCN(c2ncc(CCN(C)CCCc3ccccc3)s2)CC1` [Compound 2c, N-methyl-N-3-phenylalkyl-2-[2-(4-n-propylpiperazin-1-yl)-1,3-thiazol-5-yl]ethan-1-amine], the “effect on food intake” value in the data set on Lewis rats (listed as ADS-531, 3 mg/kg) was “did not affect histamine concentration nor feeding behavior; also recorded: did not influence the food intake”. The brain penetration entry in [4] (s.c. 3 mg/kg, 5 days) is given as “penetrated the brain”. Moreover, in data set [4] (s.c. 3 mg/kg/daily for five days, listed as ADS-531, 3 mg/kg), the “cerebral concentrations of dopamine, noradrenaline and serotonin” value is “affected dopamine, noradrenaline and serotonin concentration; also recorded: caused alterations in the concentrations of dopamine, noradrenaline, and serotonin; also recorded: increase of 5HT and NA level throughout the brain with the exception of the hypothalamus”. Moreover, the “MAO-A activity CTX” value in the data set on MAO-A worked out at 1625 ± 49.99 pmol/min/mg protein. In addition, in the data set with HNMT, the “HNMT activity CTX” value amounted to 48.19 ± 0.47 pmol/min/mg protein and the “HNMT activity HTH” value is on record as 37.58 ± 2.42 pmol/min/mg protein. In the data set on HNMT (rats, s.c. 3 mg/kg/daily for five days), the “effect on enzyme activities related to histamine metabolism in the brain (HNMT, MAO-B pathway)” value is “No significant changes”. In addition, the “pA2 (SEM) H1” value on H1 receptor [5] is given as “did not possess any activity at H1”. Moreover, the “pA2 (SEM) H1” value at H1 receptor [5] (listed as ADS-531) is “did not exhibit any H1-antagonistic activity; also recorded: devoid of the antagonistic activity at the H1 receptor”. For the same compound, the cerebral histamine concentration result in [6] (listed as ADS-531, 3 mg/kg) is on record as “did not affect histamine concentration; also recorded: No significant changes”. The “MAO-B activity CTX” value with MAO-B came out at 1044 ± 38.91 pmol/min/mg protein.

Take `CCCN1CCN(c2ncc(CCCCN(C)Cc3ccccc3)s2)CC1` [Compound 3d, N-Benzyl-N-methyl-4-[2-(4-n-propylpiperazin-1-yl)-1,3-thiazol-5-yl]butan-1-amine]: the Kb at H1 receptor [7] was 562 nM; at H3 receptor it was 11.2 nM. At H1 receptor [7] (guinea pig ileum, vs histamine), the “pA2 (SEM) H1” value amounted to 6.25.

For `CCCN1CCN(c2ncc(CCCN(C)Cc3ccccc3)s2)CC1` [Compound 3a, N-Benzyl-N-methyl-3-[2-(4-n-piperazin-1-yl)-1,3-thiazol-5-yl]propan-1-amine], the Kb at H1 receptor [7] was 3160 nM. At H3 receptor, the “pA2 (SEM) H3” value came out at 8.38 and the Kb was 4.17 nM.

As to `CCCN1CCN(c2ncc(CCCN(C)CCc3ccccc3)s2)CC1` [Compound 3b, N-Methyl-N-(2-phenylethyl)-3-[2-(4-n-propylpiperazin-1-yl)-1,3-thiazol-5-yl]propan-1-amine], at H3 receptor, the “pA2 (SEM) H3” value came out at 7.81 and the antagonist dissociation constant (Kb) is 15.5 nM.

At H3 receptor, `CCCN1CCN(c2ncc(CCCCN(C)CCc3ccccc3)s2)CC1` [Compound 3e, N-Methyl-N-(2-phenylethyl)-4-[2-(4-n-propylpiperazin-1-yl)-1,3-thiazol-5-yl]butan-1-amine] showed a Kb of 10.7 nM.

Take `O=C(c1ccc(OCCCc2cnc[nH]2)cc1)C1CC1` [Ciproxifan, ciproxifan, reference compound]: the “effect on food intake” value in the data set on Lewis rats was “caused a significant decrease in consumption”. The “MAO-A activity CTX” value with MAO-A is reported as 1654 ± 31.42 pmol/min/mg protein. Moreover, in the data set with HNMT, the “HNMT activity CTX” value is 46.90 ± 3.59 pmol/min/mg protein and the “HNMT activity HTH” value is given as 44.68 ± 5.50 pmol/min/mg protein. In addition, the “histamine concentration in the hypothalamus” value in [6] (3 mg/kg) is recorded as “tended to be higher than in the untreated controls; also recorded: significantly higher than in ADS-531 injected rats”. Besides, in the data set with MAO-B, the “MAO-B activity CTX” value came to 1049 ± 56.16 pmol/min/mg protein.
